Reference: US12691124B2, “Methods of controlling and improving brain health” (ICAHN SCHOOL OF MEDICINE AT MOUNT SINAI, priority 2019, dated 2026)
“Also recorded” adds a separate entry of the source.

What was measured:
[1] = tested on: CK-p25 mice; experiment: p25 (CK-p25) mouse model of Alzheimer's disease; assay type: in vivo; details: 30 mg/kg i.p. daily
Protocol: Cdk^5tetO/+; Camk^2atTa/+ model of Alzheimer's disease uses the Camk2a promoter-driven tetracycline-controlled transactivator system (tTA) to overexpress human p25 fused to GFP in forebrain projection neurons after the removal of doxycycline from the diet. To avoid potential developmental effects of p25 expression, all mice were conceived and raised in the presence of doxycycline until 6-8 weeks of age.
Immunostaining. Mice were anesthetized with ketamine (120 mg/kg) and xylazine (24 mg/kg) and perfused transcardially with 10 ml PBS and 40 ml 4% paraformaldehyde (Electron Microscopy Sciences). Fixed brains were removed and dehydrated in 5%, 15% and 30% sucrose in PBS. Following dehydration, brains were frozen in Neg-50 (Thermo Scientific) on dry ice and stored at −80° C. until further processing. Brains were cut using a cryostat and 25-μm sections were mounted on Superfrost Plus microscope slides (Fisher Scientific). Slides were stored at −80° C. until staining. Slides were washed with PBS, permeabilized with PBS+0.2% Triton X-100 (PBST) and blocked with 2% normal goat serum in PBST for one hour at room temperature. Slides were incubated with primary antibodies (IBA1, 1:500, 019-19741, Waco; NeuN) in 2% normal goat serum in PBST overnight at 4° C. Slides were washed in PBST and incubated in Alexa Fluor-conjugated secondary antibodies (Alexa Fluor 488-, 546-, and 568- and 647-labeled goat anti-mouse, goat anti-rat, goat anti-chicken, goat anti-rabbit or donkey anti-goat IgGs (H+L); 1:500, Thermo Scientific) in 2% normal goat serum in PBST for 1 h at RT. Slides were washed and cover-slipped using Prolong Gold anti-fade with DAPI (Invitrogen) and dried overnight. Imaging was performed using a Zeiss LSM 780 Confocal Microscope (Zeiss, Oberkochen, DE). For z-stack images, 20-μm z-stack confocal images were acquired at 2-μm intervals, with 40×/1.3 oil objective at 0.6 or 1× zoom. For single plane images, 4.6 μm images were acquired at 20×/0.8 or 40×/1.3 objectives 0.6 or 1× zoom. Image processing was performed using Zen 2011 software (Zeiss).
Immunoblotting. Mice were anesthetized with CO2 followed by decapitation, and the region of interest was rapidly dissected and frozen in liquid nitrogen and stored at −80° C. until further processing. Samples were sonicated at 4° C. in 1% SDS solution supplemented with protease, Trichostatin A (500 ng/ml) and PhosStop phosphatase inhibitor (Roche, Switzerland), and boiled for ten minutes. The protein concentration was determined using a BCA protein assay kit (ThermoFisherScientific, USA) according to the manufacturer's instructions. Protein samples were diluted in equal volume of 2×LDS sample buffer (Invitrogen) and supplemented with DTT to a final concentration of 200 mM (Sigma).
Therefore to test the therapeutic effect of IBET858, p25 was overexpressed for two weeks in adult mice to initiate microgliosis and gene expression deficits before administration of daily IBET858 (30 mg/kg, i.p.) treatment for five weeks (FIG. 6A).
Gene expression levels for Casp3 are unaffected by 5 week IBET858 treatment in vivo. n=3, unpaired two-tailed t-test. […] To generate the p25 neurodegenerative mouse model, tetOCDK5R1/GFP were bred to CamK2a-tTA mice (“CK-p25”). Transgene overexpression was induced at 6 weeks of age by removing doxycycline from the diet. After two weeks, mice were daily injected with IBET858 (30 mg/kg, i.p.) or vehicle (FIG. 24C). Gene expression and protein levels of GFP reflecting transgene expression are unchanged.

[2] = tested on: primary microglia; experiment: Gene expression in primary microglia treated with IBET858; assay type: cell-based, mouse
Protocol: Primary Microglia Culture. Postnatal day 0 C57/Bl6 mice were decapitated in ice cold HBSS. The forebrain was rapidly dissected and treated as above in order to generate a single cell suspension. 60,000 cells per cm2 were seeded in vented, Poly-D-lysine coated flasks. Mixed glial cultures were maintained in DMEM containing 10% FBS and 1% penicillin/streptomycin for 3 weeks. After three weeks, microglia were isolated by shaking the mixed glial cultures for 4 hours at 360 rpm and re-plated at density on 100,0000 cells/cm2. Cultures were given 24 hours to settle before treatment. Cultures were pre-treated for 30 minutes with either DMSO (0.01%) or 1 uM IBET858. After 30 minutes, LPS (100 ng/ml) was added to the cultures. RNA was isolated with Trizol LS according to the manufacturer's recommendations after 1, 4 and 12 hours of LPS treatment.
To test the role of BET proteins in microglial gene expression, primary microglia cultures from mouse forebrain were treated with the brain-permeable BET inhibitors IBET858 (1 μM) for 1, 4, or 12 hours (FIG. 3A). Because loss of BET activity in macrophages negatively impacts differentiation and proliferation189, microglia identity genes were examined to understand if microglial lineage is regulated by BET proteins (FIG. 3C). Hexb, Fcrls, and Fcer1g expression was unaffected by IBET858 indicating microglial differentiation is unaffected.

CC(=O)N1c2ccc(-c3ccc(CN4CCCCC4)cc3)cc2[C@H](Nc2ccccc2)CC1C (stereo in doubt) [IBET858]
hippocampal inflammatory genes induced by P25 overexpression ([1]; five weeks): suppressed
contextual and cued recall (freezing behavior) ([1]; five weeks, fear conditioning): indistinguishable from controls
hippocampal Psd95 protein level compared to wild type controls ([1]; five weeks, untreated P25 42+/−10.7%): 106+/−11.9%
hippocampal NeuN protein level compared to wild type controls ([1]; five weeks, untreated P25 49+/−9.3%): 105+/−9.8%
brain atrophy (loss) ([1]; five weeks, untreated p25 27%): 17%
number of microglia in the hippocampus ([1]; five weeks, untreated p25 713.9+/−106): 332.9+/−12.6 Iba1+ cells per mm^2
neuronal density in the dentate gyrus ([1]; five weeks, untreated p25 2254+/−223.8): 7880+/−587 NeuN+ cells per mm2
expression of the p25 transgene ([1]; western blot / GFP): does not affect; also recorded: unchanged
genes induced by P25 overexpression that are significantly suppressed ([1]; hippocampus): 365 genes
genes suppressed by P25 overexpression that are significantly induced ([1]; hippocampus): 373 genes
immune response and cell activation pathway genes ([2]; 1 μM): suppresses
genes significantly down-regulated ([2]; 1 μM IBET858, 4 hours): 1245 genes
genes significantly down-regulated ([2]; 1 μM IBET858, 12 hours): 1175 genes
microglia identity gene expression (Hexb, Fcrls, Fcer1g) ([2]; 1 μM, 1, 4 or 12 hours): unaffected
phagocytosis gene expression ([2]; 1 μM, all time points): also unaffected
